Read-outs that look alike come from different tables or passages of the source.
Target: CFTR (Homo sapiens, UniProt P13569)
Assay: Membrane potential dye, Enteroid Assay A
Type: cell-based
Details: for Ent. A Max Activity: chloride transport as % of triple combination control (Enteroid Assay A); for EC50: human enteroid cells, 18-24 hours, acute 10 μM forskolin and 300 nM ivacaftor, read-out: Ent. A EC50
Summary of the method: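 % Activity: chloride transport relative to a 3 μM/3 μM corrector pair plus 300 nM acute potentiator control. Primary human enteroid cells, 18-24 h compound exposure at 37 °C; membrane potential dye (methyl oxonol) fluorescence over 15 min after forskolin (10 μM)/IBMX (100 μM)/Compound III (300 nM) stimulation in chloride-free buffer.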

Sequence of CFTR (P13569 with tags, fused parts or gaps DEL508-508): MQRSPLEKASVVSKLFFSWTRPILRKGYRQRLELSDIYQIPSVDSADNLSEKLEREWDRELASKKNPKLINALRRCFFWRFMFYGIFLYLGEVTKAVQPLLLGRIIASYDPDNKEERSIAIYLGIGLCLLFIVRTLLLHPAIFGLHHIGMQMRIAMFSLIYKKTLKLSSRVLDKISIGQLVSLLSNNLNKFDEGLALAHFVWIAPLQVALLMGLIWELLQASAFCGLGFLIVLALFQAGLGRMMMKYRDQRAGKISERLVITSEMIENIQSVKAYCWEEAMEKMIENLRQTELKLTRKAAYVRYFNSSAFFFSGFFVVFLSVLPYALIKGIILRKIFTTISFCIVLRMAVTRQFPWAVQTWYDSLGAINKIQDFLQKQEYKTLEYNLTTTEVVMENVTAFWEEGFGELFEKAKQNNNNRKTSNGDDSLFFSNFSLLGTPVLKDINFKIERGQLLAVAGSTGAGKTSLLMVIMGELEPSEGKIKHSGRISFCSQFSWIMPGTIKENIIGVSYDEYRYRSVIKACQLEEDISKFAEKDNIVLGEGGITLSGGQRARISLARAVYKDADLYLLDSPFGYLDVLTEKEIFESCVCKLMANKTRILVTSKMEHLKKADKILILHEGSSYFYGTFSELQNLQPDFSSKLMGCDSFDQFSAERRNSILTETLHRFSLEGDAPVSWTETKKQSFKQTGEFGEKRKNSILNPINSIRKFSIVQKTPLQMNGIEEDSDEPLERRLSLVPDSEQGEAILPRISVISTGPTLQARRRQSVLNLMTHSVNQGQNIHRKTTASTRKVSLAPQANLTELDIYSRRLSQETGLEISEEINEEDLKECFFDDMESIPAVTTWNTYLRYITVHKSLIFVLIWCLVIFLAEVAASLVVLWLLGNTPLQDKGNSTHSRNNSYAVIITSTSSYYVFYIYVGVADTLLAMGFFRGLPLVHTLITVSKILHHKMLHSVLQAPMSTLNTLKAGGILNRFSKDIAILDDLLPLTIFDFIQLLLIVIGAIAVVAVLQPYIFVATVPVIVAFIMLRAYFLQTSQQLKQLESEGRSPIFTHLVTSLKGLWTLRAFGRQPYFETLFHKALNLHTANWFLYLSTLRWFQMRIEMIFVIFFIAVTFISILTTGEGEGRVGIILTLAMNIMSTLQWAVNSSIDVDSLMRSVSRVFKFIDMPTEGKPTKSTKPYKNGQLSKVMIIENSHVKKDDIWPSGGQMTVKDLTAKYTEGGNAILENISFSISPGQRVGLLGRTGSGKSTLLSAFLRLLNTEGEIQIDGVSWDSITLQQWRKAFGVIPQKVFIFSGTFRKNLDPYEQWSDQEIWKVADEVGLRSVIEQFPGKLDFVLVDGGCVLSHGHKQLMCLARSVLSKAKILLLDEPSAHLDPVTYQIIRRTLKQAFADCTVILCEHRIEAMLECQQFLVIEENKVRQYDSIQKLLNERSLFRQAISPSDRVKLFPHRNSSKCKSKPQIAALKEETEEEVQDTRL

Row | Ent. A Max Activity (Table 6) | EC50 (Table 6) [µM] | Ent. A Max Activity (Table 7) | EC50 (Table 7) [µM] | SMILES
1 |  |  | +++ (+++ is >60%) | < 1 | COC1CCN(c2ccc(CN3C(=O)c4cccc(c4)S(=O)(=O)Nc4nc(cc(-c5c(C)cccc5C)n4)OC[C@H]3CC(C)C)cn2)CC1 [Compound 971]
2 |  |  | ++ (++ is 30-60%) | < 1 | COCC1CCN(c2ccc(CN3C(=O)c4cccc(c4)S(=O)(=O)Nc4nc(cc(-c5c(C)cccc5C)n4)OC[C@H]3CC(C)C)cn2)CC1 [Compound 970]
3 | +++ (+++ is >60%) | < 1 |  |  | Cc1cccc(C)c1-c1cc2nc(n1)NS(=O)(=O)c1cccc(c1)C(=O)N(CCN1CCOCC1)[C@H](CC(C)C)CO2 [Compound 1108]
4 |  |  | + (+ is <30%) |  | COC1CCC(CC(=O)N2Cc3cccc(c3)S(=O)(=O)Nc3nc(cc(-c4c(C)cccc4C)n3)OC[C@H]2CC(C)C)CC1 (stereo partly drawn) [Compound 1045]
5 |  |  | ++ (++ is 30-60%) | 1 to 3 | Cc1cccc(C)c1-c1cc2nc(n1)NS(=O)(=O)c1cccc(c1)C(=O)N(CCC(C)(C)C)[C@H](CC(F)(F)F)CO2 [Compound 984]
6 |  |  | ++ (++ is 30-60%) | < 1 | COc1ccc(CN2Cc3cccc(c3)S(=O)(=O)Nc3nc(cc(-c4c(C)cccc4C)n3)OC[C@H]2CC(C)C)cc1C(F)(F)F [Compound 1031]
7 |  |  |  | < 1 | Cc1cccc(C)c1-c1cc2nc(n1)NS(=O)(=O)c1cccc(c1)C(=O)N(Cc1ccc(C3=CCN(C)CC3)nc1)[C@H](CC(C)C)CO2 [Compound 967]
8 | +++ (+++ is >60%) | 3 to 30 |  |  | Cc1cccc(C)c1-c1cc2nc(n1)NS(=O)(=O)c1cccc(c1)C(=O)N(C)CC(CN(C)CCC(C)(C)C)O2 (stereo not drawn) [Compound 1014]
9 |  |  | ++ (++ is 30-60%) | < 1 | Cc1cccc(C)c1-c1cc2nc(n1)NS(=O)(=O)c1cccc(c1)CN(Cc1ccccc1OC(C)C)[C@H](CC(C)C)CO2 [Compound 1036]
10 |  |  | ++ (++ is 30-60%) | < 1 | Cc1cccc(C)c1-c1cc2nc(n1)NS(=O)(=O)c1cccc(c1)CN(Cc1ccccc1-c1ccccc1)[C@H](CC(C)C)CO2 [Compound 1034]
11 | ++ (++ is 30-60%) | < 1 |  |  | C=CC1CN(CCC(C)C)C(=O)c2cccc(c2)S(=O)(=O)Nc2nc(cc(-c3c(C)cccc3C)n2)O1 (stereo not drawn) [Compound 1012]
12 | +++ (+++ is >60%) | < 1 |  |  | CCC(CC)CN1C(=O)c2cccc(c2)S(=O)(=O)Nc2nc(cc(-c3c(C)cccc3C)n2)OC[C@H]1CC(C)C [Compound 990]

The next lines start with the molecule.

Row | SMILES | Ent. A Max Activity (Table 6) | EC50 (Table 6) [µM] | Ent. A Max Activity (Table 7) | EC50 (Table 7) [µM]
13 | COC(=O)CCCN1C(=O)c2cccc(c2)S(=O)(=O)Nc2nc(cc(-c3c(C)cccc3C)n2)OC[C@H]1CC(C)C [Compound 367] | +++ (+++ is >60%) | < 1 |  | 
14 | Cc1cccc(C)c1-c1cc2nc(n1)NS(=O)(=O)c1cccc(c1)C(=O)N(CC1CC3(CCN(C)CC3)C1)[C@H](CC(C)C)CO2 [Compound 89, (11R)-6-(2,6-Dimethylphenyl)-11-isobutyl-12-[(7-methyl-7-azaspiro[3.5]nonan-2-yl)methyl]-2,2-dioxo-9-oxa-2λ^6-thia-3,5,12,19-tetrazatricyclo[12.3.1.14,8]nonadeca-1(18),4(19),5,7,14,16-hexaen-13-one] |  |  | +++ (+++ is >60%) | < 1
15 | Cc1cccc(C)c1-c1cc2nc(n1)NS(=O)(=O)c1cccc(c1)C(=O)N(Cc1ccc(N3C[C@@H](O)[C@@H](O)C3)nc1)[C@H](CC(C)C)CO2 [Compound 953] |  |  | +++ (+++ is >60%) | < 1
16 | Cc1cccc(C)c1-c1cc2nc(n1)NS(=O)(=O)c1cccc(c1)C(=O)N(Cc1ccc(N3CCC(F)(F)CC3)nc1)[C@H](CC(C)C)CO2 [Compound 937] |  |  | +++ (+++ is >60%) | < 1
17 | Cc1cccc(C)c1-c1cc2nc(n1)NS(=O)(=O)c1cccc(c1)C(=O)N(CC1CC3(CCN(C(C)C)CC3)C1)[C@H](CC(C)C)CO2 [Compound 415] |  |  | +++ (+++ is >60%) | < 1
18 | Cc1cccc(C)c1-c1cc2nc(n1)NS(=O)(=O)c1cccc(c1)C(=O)N(CC1CCN(C)CC1)[C@H](CC(C)C)CO2 [Compound 360] | +++ (+++ is >60%) | 1 to 3 |  | 
19 | Cc1cccc(C)c1-c1cc2nc(n1)NS(=O)(=O)c1cccc(c1)C(=O)N(C)CC(CN(CCC(C)(C)C)CCC(C)(C)C)O2 (stereo not drawn) [Compound 98, 10-[[bis(3,3-Dimethylbutyl)amino]methyl]-6-(2,6-dimethylphenyl)-12-methyl-2,2-dioxo-9-oxa-2λ^6-thia-3,5,12,19-tetrazatricyclo[12.3.1.14,8]nonadeca-1(18),4(19),5,7,14,16-hexaen-13-one] | +++ (+++ is >60%) | < 1 |  | 
20 | Cc1cccc(C)c1-c1cc2nc(n1)NS(=O)(=O)c1cccc(c1)C(=O)N(C)CC(c1ccc(C(N)=O)cc1)O2 (stereo not drawn) [Compound 666] | + (+ is <30%) |  |  | 
21 | Cc1cccc(C)c1-c1cc2nc(n1)NS(=O)(=O)c1cccc(c1)C(=O)N(Cc1ccccc1)C(C(=O)NC(C)(C)C)CO2 (stereo not drawn) [Compound 44, 12-benzyl-N-tert-butyl-6-(2,6-dimethylphenyl)-2,2,13-trioxo-9-oxa-2λ^6-thia-3,5,12,19-tetrazatricyclo[12.3.1.14,8]nonadeca-1(18),4(19),5,7,14,16-hexaene-11-carboxamide] | ++ (++ is 30-60%) | 3 to 30 |  | 
22 | Cc1cccc(C)c1-c1cc2nc(n1)NS(=O)(=O)c1cccc(c1)C(=O)N(CC1CCCN1)[C@H](CC(C)C)CO2 (stereo partly drawn) [Compound 344] | +++ (+++ is >60%) | < 1 |  | 
23 | Cc1cccc(C)c1-c1cc2nc(n1)NS(=O)(=O)c1cccc(c1)C(=O)N(C)CC(c1ccc(C#N)cc1)O2 (stereo not drawn) [Compound 667] | ++ (++ is 30-60%) | 1 to 3 |  | 
24 | Cc1cccc(C)c1-c1cc2nc(n1)NS(=O)(=O)c1cccc(c1)C(=O)N(CCCC(=O)O)[C@H](CC(C)C)CO2 [Compound 359] | ++ (++ is 30-60%) | 3 to 30 |  | 
25 | COc1ccc(CN2C(=O)c3cccc(c3)S(=O)(=O)Nc3nc(cc(-c4c(C)cccc4C)n3)OC[C@H]2CC(C)C)cn1 [Compound 422] | +++ (+++ is >60%) | < 1 |  | 
26 | Cc1cccc(C)c1-c1cc2nc(n1)NS(=O)(=O)c1cccc(c1)C(=O)N(C)C[C@@H](c1ccc(C(C)(C)C)cc1)O2 (single isomer, unassigned) [Compound 12, 10-(4-tert-butylphenyl)-6-(2,6-dimethylphenyl)-12-methyl-2,2-dioxo-9-oxa-2λ^6-thia-3,5,12,19-tetrazatricyclo[12.3.1.14,8]nonadeca-1(18),4(19),5,7,14,16-hexaen-13-one] |  |  | ++ (++ is 30-60%) | < 1
27 | Cc1cccc(C)c1-c1cc2nc(n1)NS(=O)(=O)c1cccc(c1)C(=O)N(CC1CCN(C)CC1)[C@H](CC(C)(C)C)CO2 [Compound 426] | +++ (+++ is >60%) | 1 to 3 |  | 
28 | Cc1cccc(C)c1-c1cc2nc(n1)NS(=O)(=O)c1cccc(c1)C(=O)N(CC1CCOC1)[C@H](CC(C)C)CO2 (stereo partly drawn) [Compound 357] | +++ (+++ is >60%) | < 1 |  | 
29 | Cc1ccccc1-c1cc2nc(n1)NS(=O)(=O)c1cccc(c1)C(=O)N(C)[C@H](CC(C)C)[C@H](c1ccc(C(C)(C)C)cn1)O2 [Compound 343] | +++ (+++ is >60%) | < 1 |  | 
30 | Cc1cccc(C)c1-c1cc2nc(n1)NS(=O)(=O)c1cccc(c1)C(=O)N(C)C[C@H](c1ccc(-c3ccc(C(C)(C)C)cc3)cn1)O2 [Compound 509] |  |  | + (+ is <30%) | 
31 | Cc1cccc(C)c1-c1cc2nc(n1)NS(=O)(=O)c1cccc(c1)C(=O)N(Cc1ccc(N3CCC4(CC3)COC4)nc1)[C@H](CC(C)C)CO2 [Compound 965] |  |  | +++ (+++ is >60%) | < 1
32 | Cc1cccc(C)c1-c1cc2nc(n1)NS(=O)(=O)c1cccc(c1)C(=O)N(CC(C)C)C[C@H](c1ccccc1)O2 [Compound 864] | ++ (++ is 30-60%) | < 1 |  | 
33 | Cc1cccc(C)c1-c1cc2nc(n1)NS(=O)(=O)c1cccc(c1)C(=O)N(Cc1ccc(N3CCC(CO)CC3)nc1)[C@H](CC(C)C)CO2 [Compound 956] |  |  | +++ (+++ is >60%) | < 1
34 | CNC(=O)c1ccc(CN2C(=O)c3cccc(c3)S(=O)(=O)Nc3nc(cc(-c4c(C)cccc4C)n3)OC[C@H]2CC2(C(F)(F)F)CC2)cc1 [Compound 683] |  |  | +++ (+++ is >60%) | < 1
35 | CNC(=O)c1ccc(CN2C(=O)c3cccc(c3)S(=O)(=O)Nc3nc(cc(-c4c(C)cccc4C)n3)OC[C@H]2CC2(C(F)(F)F)CC2)cc1 [Compound 682] |  |  | + (+ is <30%) | 1 to 3
36 | Cc1cccc(C)c1-c1cc2nc(n1)NS(=O)(=O)c1cccc(c1)C(=O)N(C)[C@@H](CC(C)C)[C@H](c1ccc(C(C)(C)C)nc1)O2 [Compound 512] | + (+ is <30%) |  |  | 
37 | Cc1cccc(C)c1-c1cc2nc(n1)NS(=O)(=O)c1cccc(c1)C(=O)N(CC(C)C)C[C@H](Cc1ccccc1)O2 [Compound 863] | +++ (+++ is >60%) | < 1 |  | 

Reference: patent publication US20240150377A1, “MODULATORS OF CYSTIC FIBROSIS TRANSMEMBRANE CONDUCTANCE REGULATOR” (VERTEX PHARMACEUTICALS INCORPORATED, priority 2020, published 2024)
